Article PMC5949348, “The Metabolism of Separase Inhibitor Sepin-1 in Human, Mouse, and Rat Liver Microsomes” (Frontiers in Pharmacology, 2018)
pIC50: −log10 of the molar value. Where “and” joins values, the source holds several entries; their conditions need not be identical. Identical values can stand only once.

Biological target: T1, CYP2C9 (Homo sapiens, UniProt P11712)
T1 construct: purchased XenoTech
Assay: Inhibition of sepin-1 on CYP2C9
Type: in vitro ADME
Method: Incubations were performed in 1× PBS (pH 7.4), containing 0, 0.156, 0.312, 0.625, 1.25, 2.5, 5, 10, 20, or 40 μM sepin-1, 2 pmol of each cDNA-expressed P450 enzymes, and corresponding substrates: CYP1A2 (phenacetin, 40 μM, 20 min incubation), 2B6 (efavirenz, 20 μM, 30 min), 2C8 (paclitaxel, 10 μM, 30 min), 2C9 (diclofenac, 5 μM, 15 min), 2C19 [(S)-mephenytoin, 40 μM, 20 min], 2D6 (dextromethorphan, 5 μM, 15 min), and CYP3A4 (midazolam, 3 μM, 10 min) in a final volume of 190 μl. After 5 min of pre-incubation at 37°C, the reaction was initiated by adding 10 μl of 20 mM NADPH (final concentration 1.0 mM) and continued for a specific time as presented above with gentle shaking. Incubations without sepin-1 were used as controls. Reactions were terminated by the addition of 200 μl of ice-cold methanol, vortexing for 30 s, and centrifuging at 15,000 × g for 15 min. Each supernatant was transferred to an auto sampler vial and 5.0 μl was injected on to UHPLC coupled with a QQQMS system for the specific metabolite analysis. A MRM method was used. Incubations were conducted in duplicate. Positive controls were performed by using a known specific inhibitor for each of the isoform assays (Supplementary Table S1). […]

T1 sequence (P11712 whole entry): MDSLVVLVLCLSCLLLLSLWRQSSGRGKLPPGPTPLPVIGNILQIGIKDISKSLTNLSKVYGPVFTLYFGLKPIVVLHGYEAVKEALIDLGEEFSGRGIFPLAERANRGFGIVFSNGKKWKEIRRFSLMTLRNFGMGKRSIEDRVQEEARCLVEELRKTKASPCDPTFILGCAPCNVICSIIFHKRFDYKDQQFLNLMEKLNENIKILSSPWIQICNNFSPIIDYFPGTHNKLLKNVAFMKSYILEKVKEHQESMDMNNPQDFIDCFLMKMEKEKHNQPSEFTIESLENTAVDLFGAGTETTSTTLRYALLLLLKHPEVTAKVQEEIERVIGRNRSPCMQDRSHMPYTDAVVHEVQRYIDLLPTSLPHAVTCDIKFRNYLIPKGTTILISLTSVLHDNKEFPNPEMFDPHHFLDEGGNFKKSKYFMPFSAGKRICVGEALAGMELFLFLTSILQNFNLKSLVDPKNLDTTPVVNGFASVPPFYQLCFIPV

Inhibition potency class on CYP2C9 (FDA classification bands): weak inhibition
pIC50 (substrate diclofenac 5 μM, 15 min, metabolite 4-O-diclofenac, co-incubation): < 5.00 and 4.67
Compound: CC1(C)[N+]([O-])=c2ccc([N+](=O)[O-])cc2=[N+]1[O-] [Sepin-1, 2,2-dimethyl-5-nitro-2H-benzimidazole-1,3-dioxide]
